# Measurements published in patent US9918989B2, “Combination therapies for malaria” (The Regents of the University of California, priority 2013, dated 2018).
# Entries after “also recorded” stand apart in the source; their conditions may differ.
# Experiments:
# [1] = system: Anopheles stephensi p38 MAPK; assay: MK2 phosphorylation in LPS-stimulated ASE cells, western blot; type: cell-based; conditions: ASE cells pre-incubated with 10 μM inhibitor, 2 h later 1 μg/ml LPS
# [2] = system: Plasmodium falciparum; assay: P. falciparum growth in vitro, flow cytometry; type: cell-based; conditions: 1 μM or 10 μM (up to 10 μM), 48 h, relative to vehicle control
# [3] = system: Plasmodium falciparum; assay: P. falciparum development (oocysts) in A. stephensi after inhibitor-supplemented bloodmeal; type: in vivo, Anopheles stephensi; conditions: 10 μM in bloodmeal
# Protocol: Midguts were dissected and oocysts were counted at 10 days following infection. Dots in FIG. 3A and FIG. 3C represent oocyst numbers in one midgut, while percentage positive midguts or percentage of midguts with at least one oocyst are represented as means in FIG. 3B and FIG. 3D. Mean oocysts per midgut (lines, numbers on graph) were analyzed by ANOVA (alpha=0.05) for overall significance and by Student-Neuman-Keuls for pairwise comparisons using Graphpad Prism version 4.0 (San Diego, Calif.). Prevalences of mosquito infection (indicated on graph) were analyzed by chi-square (alpha=0.05).
# [4] = system: A. stephensi; assay: Mosquito lifespan with inhibitor in water or bloodmeal; type: in vivo, Anopheles stephensi; conditions: 1 μM or 10 μM daily in water or once weekly via bloodmeal
# [5] = system: A. freeborni; assay: as above; type: in vivo, Anopheles freeborni; conditions: 1 μM or 10 μM daily in water or once weekly via bloodmeal
# [6] = system: anti-parasite genes; assay: Midgut expression of anti-parasite/immune genes, quantitative PCR; type: in vivo, Anopheles stephensi; conditions: BIRB 796 with killed lysate of P. falciparum; 6 h post-feeding
SMILES,p-MK2 levels (phosphorylation of MK2) [1],P. falciparum growth in vitro (parasitemia) [2],infection prevalence in A. stephensi ([3]; midguts with at least one oocyst at 10 days),P. falciparum oocysts/midgut ([3]; oocysts counted at 10 days),impact on lifespan [4],impact on lifespan [5],midgut immune gene expression levels [6]
"C[S+]([O-])c1ccc(-c2nc(-c3ccc(F)cc3)c(-c3ccncc3)[nH]2)cc1 (centres unmarked) [SB203580, 4-[4-(4-fluorophenyl)-2-(4-methylsulfinylphenyl)-1H-imidazol-5-yl]pyridine]",undetectable,Neither inhibitor significantly altered parasite growth; also recorded: no such effects,significantly reduced,significantly reduced,,,
"Oc1c2ccccc2c2c3c(cccc13)N=N2 [SP600125, 1;9-Pyrazoloanthrone]",,,,,no negative impact,no negative impact,
"Cc1ccc(-n2nc(C(C)(C)C)cc2NC(=O)Nc2ccc(OCCN3CCOCC3)c3ccccc23)cc1 [BIRB 796, 1-[5-tert-butyl-2-(4-methylphenyl)pyrazol-3-yl]-3-[4-(2-morpholin-4-ylethoxy)naphthalen-1-yl]urea]",,Neither inhibitor significantly altered parasite growth,,,,,significantly different from controls
